Experimental data published in ChEMBL document CHEMBL1125208, “Applications of neural networks in quantitative structure-activity relationships of dihydrofolate reductase inhibitors” (J Med Chem, 1991).

The molecules below were run against T1, Dihydrofolate reductase (Mus musculus) (UniProt P00375) (assay: Inhibition of dihydrofolate reductase from L1210 leukemia tumors).
T1 sequence (whole entry): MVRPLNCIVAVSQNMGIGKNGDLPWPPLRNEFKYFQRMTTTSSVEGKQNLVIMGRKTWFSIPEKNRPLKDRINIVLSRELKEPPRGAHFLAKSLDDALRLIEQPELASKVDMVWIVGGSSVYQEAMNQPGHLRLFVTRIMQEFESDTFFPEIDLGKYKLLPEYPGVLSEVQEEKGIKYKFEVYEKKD

Structure (SMILES)	Log 1/C
CC1(C)N=C(N)N=C(N)N1c1cc(Cl)c(OCC(=O)Nc2ccc(S(=O)(=O)F)cc2)c(Cl)c1	7.74
CC1(C)N=C(N)N=C(N)N1c1ccc(OCc2ccc(S(=O)(=O)F)c(Cl)c2)c(Cl)c1	7.43
CC1(C)N=C(N)N=C(N)N1c1ccc(OCc2cc(S(=O)(=O)F)ccc2Cl)c(Cl)c1	7.38
CC1(C)N=C(N)N=C(N)N1c1cccc(CNC(=O)N2CCOCC2)c1	6.43
CC1(C)N=C(N)N=C(N)N1c1ccc(OCC(=O)Nc2ccc(S(=O)(=O)F)cc2)c(Cl)c1	7.43
CC1(C)N=C(N)N=C(N)N1c1ccc(OCc2ccc(S(=O)(=O)F)cc2Cl)c(Cl)c1	7.44
CC1(C)N=C(N)N=C(N)N1c1ccc(Cl)c(CCCCc2ccc(S(=O)(=O)F)cc2)c1	6.77
CC1(C)N=C(N)N=C(N)N1c1ccc(OCc2ccc(C(=O)Nc3ccc(S(=O)(=O)F)cc3)cc2)c(Cl)c1	6.92
CC1(C)N=C(N)N=C(N)N1c1ccc(OCc2cccc(C(=O)Nc3ccc(S(=O)(=O)F)cc3)c2)c(Cl)c1	6.92
CC1(C)N=C(N)N=C(N)N1c1ccc(CCC(=O)Nc2ccc(S(=O)(=O)F)cc2)cc1	7.6
CC1(C)N=C(N)N=C(N)N1c1ccc(CCc2ccc(S(=O)(=O)F)c(Cl)c2)c(Cl)c1	7.85
CC1(C)N=C(N)N=C(N)N1c1ccc(OCc2cccc(Cl)c2S(=O)(=O)F)c(Cl)c1	7.42
CN(C(=O)COc1ccc(N2C(N)=NC(N)=NC2(C)C)cc1Cl)c1ccc(S(=O)(=O)F)cc1	7.47
CC1(C)N=C(N)N=C(N)N1c1ccc(CCCCc2ccc(S(=O)(=O)F)cc2Cl)cc1	7.96
CC1(C)N=C(N)N=C(N)N1c1ccc(CC(C(=O)Nc2cccc(S(=O)(=O)F)c2)c2ccccc2)cc1 (stereo not given)	6.89
CC1(C)N=C(N)N=C(N)N1c1ccc(CCCCc2ccc(S(=O)(=O)F)c(Cl)c2)c(Cl)c1	7.7
CC1(C)N=C(N)N=C(N)N1c1ccc(OCc2ccc(C(=O)Nc3cccc(S(=O)(=O)F)c3)cc2)c(Cl)c1	7.41
CC1(C)N=C(N)N=C(N)N1c1cccc(CNC(=O)Nc2cccc(Cl)c2)c1	8.05

Structure (SMILES)	Log 1/C
CC1(C)N=C(N)N=C(N)N1c1ccc(Cl)c(CCc2ccc(S(=O)(=O)F)cc2)c1	5.82
CC(Oc1ccc(N2C(N)=NC(N)=NC2(C)C)cc1Cl)C(=O)Nc1ccc(S(=O)(=O)F)cc1 (stereo not given)	7.13
CC1(C)N=C(N)N=C(N)N1c1ccc(OCc2cccc(S(=O)(=O)F)c2)c(Cl)c1	7.72
CC1(C)N=C(N)N=C(N)N1c1ccc(OCCOCCOc2ccc(S(=O)(=O)F)cc2)c(Cl)c1	7.14
CC1(C)N=C(N)N=C(N)N1c1ccc(OCCCNC(=O)Nc2cccc(S(=O)(=O)F)c2)cc1	7.32
CC1(C)N=C(N)N=C(N)N1c1cccc(CCCCc2cc(Cl)ccc2S(=O)(=O)F)c1	7.96
CC1(C)N=C(N)N=C(N)N1c1ccc(CNC(=O)Nc2ccc(S(=O)(=O)F)cc2)c(Cl)c1	7.92
CCN(CC)C(=O)NCc1cccc(N2C(N)=NC(N)=NC2(C)C)c1	6.11
CC1(C)N=C(N)N=C(N)N1c1ccc(CCCCc2ccc(S(=O)(=O)F)cc2)cc1	7.7
CC1(C)N=C(N)N=C(N)N1c1ccc(OCc2ccc(COc3ccc(S(=O)(=O)F)cc3)cc2)c(Cl)c1	6.82
CC1(C)N=C(N)N=C(N)N1c1ccc(OCc2ccccc2S(=O)(=O)F)c(Cl)c1	7.43
CC1(C)N=C(N)N=C(N)N1c1ccc(CCCCc2ccccc2S(=O)(=O)F)c(Cl)c1	7.77
Cc1cc(NC(=O)NCCOc2ccc(N3C(N)=NC(N)=NC3(C)C)cc2Cl)ccc1S(=O)(=O)F	7.82
CC1(C)N=C(N)N=C(N)N1c1ccc(OCCCC(=O)Nc2ccc(S(=O)(=O)F)cc2)c(Cl)c1	7.15
CC1(C)N=C(N)N=C(N)N1c1ccc(OCc2cccc(S(=O)(=O)F)c2Cl)c(Cl)c1	7.49
CC1(C)N=C(N)N=C(N)N1c1ccc(OCCCCCOc2ccc(S(=O)(=O)F)cc2)c(Cl)c1	7.57
CC1(C)N=C(N)N=C(N)N1c1ccc(Cl)c(OCCOc2ccc(S(=O)(=O)F)cc2)c1	7.27
